{
  "source": "patent US20060251638A1",
  "about": "“Cytoprotection through the use of hif hydroxylase inhibitors” (priority 2003, published 2006)",
  "key": {"[1]": {"tested_on": "gene encoding adrenomedullin", "assay": "Adrenomedullin gene expression in peripheral blood mononuclear cells", "type": "cell-based", "conditions": "human PBMCs, 5 μM, 20 hours", "protocol": "Adrenomedullin gene expression following compound treatment was also examined in peripheral blood mononuclear cells (PBMCs). Whole human blood was collected and processed immediately. The blood was diluted with an equal volume of phosphate buffered saline. FICOLL-PAQUE PLUS (Amersham Biosciences) was layered under the blood and the tubes were centrifuged at 350×g for 12 minutes at room temperature. PBMCs formed a visible layer in the middle layer of the tube. PBMCs were carefully removed from the tube, diluted with 3 volumes of phosphate buffered saline, and pelleted by centrifugation for 5 minutes at 300×g at room temperature. PBMCs were cultured in DMEM containing 2.5% fetal bovine serum and treated with either 0.25% DMSO or compound G (5 μM) in 0.25% DMSO for 20 hours. The cells were then pelleted and stored at −20° C. in RLT lysis buffer (Qiagen Inc., Valencia, Calif.) containing 1% beta-mercaptoethanol. Total RNA was isolated using the RNeasy kit (Valencia, Calif.)."}, "[2]": {"tested_on": "caspase-3 and caspase-7", "assay": "Caspase-3 and caspase-7 fluorometric assay in SH-SY5Y cells challenged with staurosporin", "type": "cell-based, human", "protocol": "SH-SY5Y cells (human neuroblastoma cells) were plated in 96-well culture plates at 60,000 cells per well. Following overnight incubation, cells were washed one time with DMEM containing 1% fetal bovine serum and cultured in identical media with either vehicle control (DMSO) or 20 μM compound G in a total volume of 200 μl per well. After 24 hours, cells were washed with serum-free media and then incubated with DMEM containing 10% fetal bovine serum with either vehicle control (DMSO) or 20 μM compound G in a total volume of 200 μl per well. Replicate cultures received DMEM with 1% fetal bovine serum and were cultured with either vehicle control (DMSO) or 20 μM compound G, in the absence or presence of 500 nM staurosporin, a kinase inhibitor that induces cellular apoptosis by a caspase-dependent mechanism. (Jacobsen et al. (1996) J Cell Biol. 133:1041-51.). After an additional 24 hour incubation, caspase activity was assayed using a caspase-3 and caspase-7 fluorometric assay according to the manufacturer's instructions (Apo-ONE Homogenous Caspase 3/7 Assay, Promega, Wis.)."}, "[3]": {"tested_on": "Human umbilical vein endothelial cells (HUVEC)", "assay": "TNF-α induced apoptosis in HUVEC (Annexin V immunostaining, morphology)", "type": "cell-based", "protocol": "Human umbilical vein endothelial cells (HUVEC) were plated in DMEM containing 0.5% fetal bovine serum that was supplemented with 1 ng/ml of vascular endothelial growth factor. After overnight culture, the cells were washed with PBS and incubated for an additional 24 hours in DMEM containing 0.5% fetal bovine serum and either vehicle control (DMSO) or 25 μM of compound G. The cell cultures were subsequently washed and re-cultured with DMEM containing 0.5% fetal bovine serum containing 20 ng/ml TNF-α for an additional 4 or 8 hours. The cells were then harvested and immunostained with either FITC-conjugated isotype control or FITC-conjugated Annexin V for identification and determination of cells undergoing apoptosis. (Koopman et al. (1994) Blood 84:1415-1420.) Annexin V preferentially binds negatively charged phospholipids, like phosphatidylserine, which are associated with plasma membrane changes in apoptotic cells. Annexin V binding allows for the identification and quantitation of cells at early stages of apoptosis, when apoptosis occurs in the absence of DNA fragmentation, and the discrimination between cell death associated with apoptosis or with necrosis.\nIn replicate HUVEC cultures treated as described above, light micrographs were taken of cells treated with vehicle control (DMSO) and compound G following stimulation with 20 ng/ml TNF-α for 4 and 8 hours (FIG. 6). […]"}},
  "data": [
    {"compound": "O=C(O)CNC(=O)c1ncc2cc(Oc3ccccc3)ccc2c1O", "note": "[Compound G, [(4-Hydroxy-7-phenoxy-isoquinoline-3-carbonyl)-amino]-acetic acid]", "values": [
      {"measurement": "increase in expression of the gene encoding adrenomedullin compared to non-treated control cells", "setting": "[1]", "value": "greater than 3.518 fold"},
      {"measurement": "caspase activity after staurosporine challenge", "setting": "[2]; 20 μM pretreatment, 500 nM staurosporin, 1% fetal bovine serum, FIG. 1", "value": "significantly inhibited"},
      {"measurement": "caspase activity in cells not undergoing apoptosis, versus DMSO", "setting": "[2]; 20 μM, 10% fetal bovine serum, no staurosporin", "value": "no differences in caspase activity"},
      {"measurement": "annexin V immunostaining (mean fluorescence intensity) versus TNF-α alone", "setting": "[3]; 25 μM for 24 hours prior to 20 ng/ml TNF-α for 4 or 8 hours", "value": "reduced annexin V immunostaining"},
      {"measurement": "HUVEC morphology after TNF-α (light micrographs)", "setting": "[3]; 25 μM prior to 20 ng/ml TNF-α for 4 and 8 hours", "value": "viable and normal morphology"}
    ]}
  ]
}
